pIC50: −log10 of the molar value. Structures can show the parent of a compound that is named as a salt.
Target: human PDE10A (UniProt Q9Y233)
Experiment: Measurement of PDE activity (recombinant enzyme, HTRF cAMP kit)
Type: biochemical
Conditions: Table 1, substrate 20 nM for PDE10, 60 minutes at 29 C, read-out: IC50
Procedure: The recombinant PDE proteins are used in in vitro enzymatic reaction for measurement of PDE activity. These recombinant proteins, including PDE10A (human, rat and mouse PDE10) and isoforms of PDEs 1, 3, 4, and 5, were purchased from commercial vendor BPS Bioscience. The enzymatic activity of PDEs was determined by cAMP measurement kit from CisBio (IBA) using HTRF technology.
The PDE enzymatic reaction was carried out in assay buffer (20 mM Tris-HCl pH7.5, 10 mM MgCl2, 0.1% bovine serum albumin) containing enzyme and substrate. The PDE enzymes concentration ranged from 10 pM-250 pM, depending on each enzyme's specific activity. The substrate cyclic nucleotide (cAMP or cGMP) concentration used in the assay was 20 nM for PDE10, and 100 nM for other PDEs. The inhibitory effect of compound was determined by incubating various concentration of inhibitor in the enzymatic assay. Typically, compound was serial diluted in DMSO then further diluted in assay buffer. Next, the compound at varying concentration was mixed with PDE enzyme. The reaction was initiated by addition of cyclic nucleotide substrate, and incubated for 60 minutes at 29 C. The reaction was stopped by addition of lysis buffer from assay kit. The cAMP-d2 and anti-cAMP cryptate in the lysis buffer detected the level of cAMP left from the PDE hydrolysis reaction. The PDE activity is reversely correlated with the amount of cAMP left in the reaction and can be converted to the percent activity of an uninhibited control (100%). Thus, IC50 value of inhibitor can be obtained by plotting inhibitor concentration against PDE activity at that concentration.

Sequence of human PDE10A (Q9Y233 290-1055 limits assumed): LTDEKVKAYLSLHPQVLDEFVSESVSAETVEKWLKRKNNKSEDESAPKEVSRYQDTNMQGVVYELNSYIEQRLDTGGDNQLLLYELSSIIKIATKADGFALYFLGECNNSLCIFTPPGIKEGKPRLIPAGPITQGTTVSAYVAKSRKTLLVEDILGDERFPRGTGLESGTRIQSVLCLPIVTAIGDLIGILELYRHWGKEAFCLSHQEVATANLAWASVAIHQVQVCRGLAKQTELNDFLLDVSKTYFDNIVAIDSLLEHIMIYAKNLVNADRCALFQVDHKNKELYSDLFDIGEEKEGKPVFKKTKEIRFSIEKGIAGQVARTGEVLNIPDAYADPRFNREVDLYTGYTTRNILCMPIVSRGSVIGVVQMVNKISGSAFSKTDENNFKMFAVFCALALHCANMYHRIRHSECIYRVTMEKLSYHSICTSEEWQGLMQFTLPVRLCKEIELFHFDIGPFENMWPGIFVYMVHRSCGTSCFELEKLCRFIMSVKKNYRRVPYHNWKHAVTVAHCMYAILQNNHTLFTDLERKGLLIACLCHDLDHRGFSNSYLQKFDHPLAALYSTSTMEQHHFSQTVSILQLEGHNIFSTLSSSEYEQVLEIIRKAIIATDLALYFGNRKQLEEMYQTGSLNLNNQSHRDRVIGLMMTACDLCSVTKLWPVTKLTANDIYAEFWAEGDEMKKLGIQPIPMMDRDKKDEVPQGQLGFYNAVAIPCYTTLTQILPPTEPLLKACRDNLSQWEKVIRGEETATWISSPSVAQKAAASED

SMILES	pIC50
O=c1c2c(C3CCNCC3)csc2ccn1CCc1ccc2ccccc2n1 [Example 215, 3-(Piperidin-4-yl)-5-[2-(quinolin-2-yl)ethyl]thieno[3,2-c]pyridin-4(5H)-one trifluoroacetate]	6.70 to 7.00
O=c1c2c(-c3ccnc(F)c3)cccc2ccn1[C@@H]1C[C@H]1c1ccc2ccccc2n1 (relative stereo) [Example 243, anti 8-(2-fluoropyridin-4-yl)-2-(2-(quinolin-2-yl)cyclopropyl)isoquinolin-1(2H)-one]	> 7.00
COc1ncc(-c2csc3cnn(CCc4ccc5ccccc5n4)c(=O)c23)cn1 [Example 59, 3-(2-methoxypyrimidin-5-yl)-5-[2-(quinolin-2-yl)ethyl]thieno[2,3-d]pyridazin-4(5H)-one]	> 7.00
N#Cc1cccc(-c2cccc3cnn(CCc4ccc5ccccc5n4)c(=O)c23)c1 [Example 114, 3-{4-Oxo-3-[2-(quinolin-2-yl)ethyl]-3,4-dihydrophthalazin-5-yl}benzonitrile]	6.70 to 7.00
O=c1c2c(-c3cc(F)ccc3F)csc2cnn1CCc1ccc2ccccc2n1 [Example 76, 3-(2,5-difluorophenyl)-5-[2-(quinolin-2-yl)ethyl]thieno[2,3-d]pyridazin-4(5H)-one]	6.70 to 7.00
O=c1c2c(-c3ccncc3)csc2ccn1/C=C/c1ccc2ccccc2n1 [compound 416, 3-(pyridin-4-yl)-5-[(E)-2-(quinolin-2-yl)ethenyl]thieno[3,2-c]pyridin-4(5H)-one]	> 7.00
O=c1c2c(-c3cccc4ncccc34)csc2cnn1CCc1ccc2ccccc2n1 [Example 47, 3-(quinolin-5-yl)-5-[2-(quinolin-2-yl)ethyl]thieno[2,3-d]pyridazin-4(5H)-one]	6.70 to 7.00
O=c1c2c(-c3ccncc3)csc2cnn1C1CC1c1ccc2sccc2n1 (centres unmarked) [compound 291]	> 7.00
O=c1c2cccc(-c3cccnc3)c2ccn1C1CC1c1ccc2ccccc2n1 (centres unmarked) [compound 298]	6.70 to 7.00
O=c1c2c(-c3ccncc3)coc2ccn1[C@@H]1C[C@H]1c1ccc2ccccc2n1 (relative stereo) [Example 233, anti 3-(pyridin-4-yl)-5-(2-(quinolin-2-yl)cyclopropyl)furo[3,2-c]pyridin-4(5H)-one]	> 7.00
O=c1c2c(-c3ccc(O)cc3)cccc2cnn1CCc1ccc2ccccc2n1 [Example 107, 8-(4-Hydroxyphenyl)-2-[2-(quinolin-2-yl)ethyl]phthalazin-1(2H)-one]	> 7.00
N#Cc1cccc(-c2csc3cnn(CCc4ccc5ccccc5n4)c(=O)c23)c1 [Example 29, 3-[4-Oxo-5-(2-quinolin-2-yl-ethyl)-4,5-dihydro-thieno[2,3-d]pyridazin-3-yl}-benzonitrile]	> 7.00
O=c1c2c(-c3ccccc3O)csc2cnn1CCc1ccc2ccccc2n1 [Example 23, 3-(2-hydroxyphenyl)-5-[2-(quinolin-2-yl)ethyl]thieno[2,3-d]pyridazin-4(5H)-one]	> 7.00
O=c1c2c(-c3ccnc(F)c3)cccc2ccn1C1CC1c1ccc2ccccc2n1 (single isomer, unassigned) [Example 238, anti (−) 8-(2-fluoropyridin-4-yl)-2-(2-(quinolin-2-yl)cyclopropyl)isoquinolin-1(2H)-one]	> 7.00
O=c1c2c(-c3ccc4ncccc4c3)csc2cnn1CCc1ccc2ccccc2n1 [Example 55, 3-(quinolin-6-yl)-5-[2-(quinolin-2-yl)ethyl]thieno[2,3-d]pyridazin-4(5H)-one]	> 7.00
O=c1c2c(-c3ccc4c(c3)CCO4)csc2cnn1CCc1ccc2ccccc2n1 [Example 46, 3-(2,3-dihydrobenzofuran-5-yl)-5-(2-quinolin-2-yl-ethyl)-5H-thieno[2,3-d]pyridazin-4-one]	> 7.00
O=c1c2c(-c3ccncc3)cccc2c(F)cn1C1CC1c1ccc2ccccc2n1 (stereo not drawn) [Example 275, anti 4-fluoro-8-(pyridin-4-yl)-2-(2-(quinolin-2-yl)cyclopropyl)isoquinolin-1(2H)-one]	> 7.00
O=c1c2c(-c3ccncc3)csc2cnn1CCc1ccc2sccc2n1 [Example 95, 3-(Pyridin-4-yl)-5-[2-(thieno[3,2-b]pyridin-5-yl)ethyl]thieno[2,3-d]pyridazin-4(5H)-one]	> 7.00
COc1ccc(-c2csc3cnn(CCc4ccc5ccccc5n4)c(=O)c23)cc1F [Example 78, 3-(3-fluoro-4-methoxyphenyl)-5-[2-(quinolin-2-yl)ethyl]thieno[2,3-d]pyridazin-4(5H)-one]	6.30 to 6.70
O=c1c2c(-c3cccnc3)cccc2cnn1CCc1ccc2ccccc2n1 [Example 126, 8-(Pyridin-3-yl)-2-[2-(quinolin-2-yl)ethyl]phthalazin-1(2H)-one]	> 7.00
O=c1c2c(-c3ccnc(F)c3)csc2ccn1C1CC1c1ccc2cc(F)ccc2n1 (centres unmarked) [compound 280]	> 7.00
COC1CCN(c2cccc3ccn([C@@H]4C[C@H]4c4ccc5ccccc5n4)c(=O)c23)CC1 (relative stereo) [Example 252, anti 8-(4-methoxypiperidin-1-yl)-2-(2-(quinolin-2-yl)cyclopropyl)isoquinolin-1(2H)-one (2E)-but-2-enedioate]	> 7.00
O=c1c2c(-c3ccncc3)csc2ccn1C1CC1c1ccc2cc(F)ccc2n1 (centres unmarked) [compound 281]	> 7.00
COc1cccc(-c2cccc3cnn(CCc4ccc5ccccc5n4)c(=O)c23)c1 [Example 113, 8-(3-Methoxyphenyl)-2-[2-(quinolin-2-yl)ethyl]phthalazin-1(2H)-one]	6.70 to 7.00

Other lines, results leading:

pIC50	SMILES
> 7.00	Cn1cc(-c2nn(CCc3cn4ccccc4n3)c(=O)c3c(-c4ccncc4)csc23)cn1 [compound 303, 5-[2-(imidazo[1,2-a]pyridin-2-yl)ethyl]-7-(1-methyl-1H-pyrazol-4-yl)-3-(pyridin-4-yl)thieno[2,3-d]pyridazin-4(5H)-one]
6.30 to 6.70	O=c1c2c(N3CCC[C@@H](O)C3)cccc2cnn1CCc1cn2ccccc2n1 [compound 332]
> 7.00	Cn1cc(-c2cccc3cnn(CCc4ccc5ccccc5n4)c(=O)c23)cn1 [Example 139, 8-(1-Methyl-1H-pyrazol-4-yl)-2-[2-(quinolin-2-yl)ethyl]phthalazin-1(2H)-one]
6.30 to 6.70	O=c1c2c(-c3cc[nH]n3)cccc2cnn1CCc1cn2ccccc2n1 [compound 328, 2-[2-(imidazo[1,2-a]pyridin-2-yl)ethyl]-8-(1H-pyrazol-3-yl)phthalazin-1(2H)-one]
> 7.00	O=c1c2c(N3CCOCC3)cccc2ccn1C1CC1c1ccc2ccccc2n1 (single isomer, unassigned) [Example 246b, anti (−) 8-morpholino-2-(2-(quinolin-2-yl)cyclopropyl)isoquinolin-1(2H)-one]
> 7.00	O=c1c2c(-c3cccnc3)csc2ccn1CCc1cn2ccccc2n1 [compound 310, 5-[2-(imidazo[1,2-a]pyridin-2-yl)ethyl]-3-(pyridin-3-yl)thieno[3,2-c]pyridin-4(5H)-one]
6.70 to 7.00	O=c1c2c(OCc3ccncc3)cccc2cnn1CCc1cn2ccccc2n1 [compound 380, 2-[2-(imidazo[1,2-a]pyridin-2-yl)ethyl]-8-(pyridin-4-ylmethoxy)phthalazin-1(2H)-one]
> 7.00	O=c1c2ccccc2c(-c2cncnc2)nn1CCc1cn2ccccc2n1 [Example 200, 2-[2-(Imidazo[1,2-a]pyridin-2-yl)ethyl]-4-(pyrimidin-5-yl)phthalazin-1(2H)-one]
> 7.00	Cn1cc(-c2cccc3cnn(CCc4cn5ccccc5n4)c(=O)c23)cn1 [compound 359, hydrochloride]
> 7.00	O=c1c2c(N3CCOCC3)cccc2ccn1C1CC1c1ccc2ccccc2n1 (stereo not drawn) [Example 246, anti 8-morpholino-2-(2-(quinolin-2-yl)cyclopropyl)isoquinolin-1(2H)-one]
> 7.00	O=c1c2cccc(N3CCOCC3)c2ccn1C1CC1c1ccc2ccccc2n1 (centres unmarked) [compound 299]
> 7.00	O=c1c2c(-c3cccc(O)c3)cccc2cnn1CCc1ccc2ccccc2n1 [Example 116, 8-(3-Hydroxyphenyl)-2-[2-(quinolin-2-yl)ethyl]phthalazin-1(2H)-one]
> 7.00	O=c1c2c(N3CCOCC3)cccc2ccn1[C@@H]1C[C@H]1c1ccc2cc(F)ccc2n1 (relative stereo) [Example 271, anti 2-(2-(6-fluoroquinolin-2-yl)cyclopropyl)-8-morpholinoisoquinolin-1(2H)-one]
> 7.00	O=c1c2c(N3CCOCC3)cccc2ccn1C1CC1c1ccc2ccccc2n1 (single isomer, unassigned) [Example 246a, anti (+) 8-morpholino-2-(2-(quinolin-2-yl)cyclopropyl)isoquinolin-1(2H)-one]
6.70 to 7.00	O=c1c2c(-c3ccco3)cccc2cnn1CCc1cn2ccccc2n1 [compound 358, hydrochloride]
6.30 to 6.70	O=c1c2ccccc2c(N2CCOCC2)nn1CCc1cn2ccccc2n1 [Example 201, 2-[2-(Imidazo[1,2-a]pyridin-2-yl)ethyl]-4-(morpholin-4-yl)phthalazin-1(2H)-one]
> 7.00	O=c1c2c(N3CCOCC3)cccc2cnn1CCc1cn2ccccc2n1 [Example 174, 2-[2-(Imidazo[1,2-a]pyridin-2-yl)ethyl]-8-(morpholin-4-yl)phthalazin-1(2H)-one]
